Results from the NIST ThermoML archive (doi:10.1016/j.tca.2013.03.025).

Test: xn = mol fraction of the nth substance listed
Settings: 101 kPa, Liquid; for viscosity: Concentric cylinders viscometry; for mass density: Vibrating tube method

CCCCOC(=O)C(C)O (stereo not given) [butyl 2-hydroxypropanoate] + CCCO
Settings	mass density [kg/m3]	viscosity [mPa·s]
288.15 K, x1 = 0.1	841.535	2.632
288.15 K, x1 = 0.2	869.447	2.786
288.15 K, x1 = 0.3001	892.853	2.979
288.15 K, x1 = 0.3998	912.61	3.19
288.15 K, x1 = 0.5	929.664	3.406
288.15 K, x1 = 0.5999	944.359	3.623
288.15 K, x1 = 0.7001	957.317	3.83
288.15 K, x1 = 0.7996	968.544	4.04
288.15 K, x1 = 0.8998	978.506	4.287
288.15 K, x1 = 1	987.269	4.628
293.15 K, x1 = 0.1	837.385	2.305
293.15 K, x1 = 0.2	865.152	2.431
293.15 K, x1 = 0.3001	888.44	2.584
293.15 K, x1 = 0.3998	908.086	2.751
293.15 K, x1 = 0.5	925.055	2.921
293.15 K, x1 = 0.5999	939.67	3.092
293.15 K, x1 = 0.7001	952.563	3.257
293.15 K, x1 = 0.7996	963.731	3.426
293.15 K, x1 = 0.8998	973.646	3.622
293.15 K, x1 = 1	982.366	3.88
298.15 K, x1 = 0.1	833.207	2.034
298.15 K, x1 = 0.2	860.837	2.147
298.15 K, x1 = 0.3001	883.997	2.277
298.15 K, x1 = 0.3998	903.535	2.413
298.15 K, x1 = 0.5	920.415	2.548
298.15 K, x1 = 0.5999	934.96	2.679
298.15 K, x1 = 0.7001	947.782	2.81
298.15 K, x1 = 0.7996	958.893	2.946
298.15 K, x1 = 0.8998	968.763	3.104
298.15 K, x1 = 1	977.448	3.307
303.15 K, x1 = 0.1	828.994	1.796
303.15 K, x1 = 0.2	856.474	1.888
303.15 K, x1 = 0.3001	879.517	1.994
303.15 K, x1 = 0.3998	898.955	2.105
303.15 K, x1 = 0.5	915.748	2.219
303.15 K, x1 = 0.5999	930.218	2.328
303.15 K, x1 = 0.7001	942.977	2.439
303.15 K, x1 = 0.7996	954.036	2.554
303.15 K, x1 = 0.8998	963.865	2.685
303.15 K, x1 = 1	972.515	2.85
308.15 K, x1 = 0.1	824.744	1.603
308.15 K, x1 = 0.2	852.093	1.679
308.15 K, x1 = 0.3001	875.001	1.769
308.15 K, x1 = 0.3998	894.346	1.862
308.15 K, x1 = 0.5	911.045	1.957
308.15 K, x1 = 0.5999	925.444	2.05
308.15 K, x1 = 0.7001	938.146	2.143
308.15 K, x1 = 0.7996	949.162	2.238
308.15 K, x1 = 0.8998	958.949	2.346
308.15 K, x1 = 1	967.567	2.481
313.15 K, x1 = 0.1	820.45	1.431
313.15 K, x1 = 0.2	847.649	1.5
313.15 K, x1 = 0.3001	870.443	1.579
313.15 K, x1 = 0.3998	889.684	1.659
313.15 K, x1 = 0.5	906.306	1.739
313.15 K, x1 = 0.5999	920.642	1.818
313.15 K, x1 = 0.7001	933.287	1.899
313.15 K, x1 = 0.7996	944.258	1.982
313.15 K, x1 = 0.8998	954.012	2.075
313.15 K, x1 = 1	962.603	2.181
318.15 K, x1 = 0.1	816.108	1.287
318.15 K, x1 = 0.2	843.16	1.349
318.15 K, x1 = 0.3001	865.84	1.417
318.15 K, x1 = 0.3998	884.981	1.486
318.15 K, x1 = 0.5	901.531	1.554
318.15 K, x1 = 0.5999	915.803	1.623
318.15 K, x1 = 0.7001	928.398	1.693
318.15 K, x1 = 0.7996	939.33	1.766
318.15 K, x1 = 0.8998	949.054	1.847
318.15 K, x1 = 1	957.624	1.935
323.15 K, x1 = 0.1	811.714	1.169
323.15 K, x1 = 0.2	838.623	1.222
323.15 K, x1 = 0.3001	861.188	1.28
323.15 K, x1 = 0.3998	880.239	1.339
323.15 K, x1 = 0.5	896.715	1.398
323.15 K, x1 = 0.5999	910.93	1.458
323.15 K, x1 = 0.7001	923.482	1.519
323.15 K, x1 = 0.7996	934.378	1.584
323.15 K, x1 = 0.8998	944.076	1.653
323.15 K, x1 = 1	952.631	1.728
